These results are taken from patent US20210267973A1, “COMBINATION OF A TYPE II PROTEIN ARGININE […] INHIBITOR AND AN ICOS BINDING PROTEIN TO TREAT CANCER” (GLAXOSMITHKLINE INTELLECTUAL PROPERTY DEVELOPMENT LIMITED, priority 2018, published 2021).

Data set [1] has as its system panel of cancer cell lines. The data set is classed as cell-based. The conditions noted are these: most sensitive lymphoma lines (MCL and DLBCL).
Description: (§1) DLBCL-diffuse large B-cell lymphoma, GBM-glioblastoma, MCL-mantle cell lymphoma, […]
as §1
The cell lines were selected to represent tumor types where PRMT5 activity has been reported to regulate key pathways and/or cell growth and survival (such as lymphoma and MCL, glioma, breast and lung cancer lines).

The subject of data set [2] is MCL cell lines. In words: 6-day growth/death assay in a panel of MCL lines. The conditions noted are these: Mino, Jeko-1. In kind it is cell-based. The text has this:
FIG. 18: Activity of PRMT5 inhibitor and ibrutinib as single agents and in combination in MCL cell lines. […] C.
• The strongest mechanistic link currently described between PRMT5 and cancer is in MCL. PRMT5 is frequently overexpressed in MCL and is highly expressed in the nuclear compartment where it increases levels of histone methylation and silences a subset of tumor suppressor genes. Importantly, cyclin D1, the oncogene that is translocated in the vast majority of MCL patients, associates with PRMT5 and through a cdk4-dependent mechanism increases PRMT5 activity. PRMT5 mediates the suppression of key genes that negatively regulate DNA replication allowing for cyclin D1-dependent neoplastic growth. PRMT5 knockdown inhibits cyclin D1-dependent cell transformation causing death of tumor cells.

The subject of data set [3] is MDM4 splicing, SDMA, p53 and p21 in MCL lines. In words: MDM4 splicing (RT-PCR) and SDMA/p53/p21 Western in MCL lines. The data set is classed as cell-based. The conditions noted are these: Z138 cells. As for the experimental part: To understand whether p53 activation is associated with MDM4 isoform switching, MDM4 alternative splicing was analyzed. […] The role of the p53 pathway in the biology of the response of p53 wild-type MCL cells to PRMT5 inhibition is being evaluated.

Data set [4] deals with Z-138 MCL xenograft. In words: 21-day efficacy study in Z-138 MCL xenograft model. The data set is classed as in vivo. The conditions noted are these: all groups in all efficacy studies presented. As for the experimental part: B. Quantified SDMA western data from tumors harvested at the end of the efficacy study (3 hours post last dose).
Data set [5] concerns xenograft models of mantle cell lymphoma. In words: xenograft models of mantle cell lymphoma (summary statement). The data set is classed as in vivo. The text has this:
[…] • The strongest mechanistic link currently described between PRMT5 and cancer is in MCL. PRMT5 is frequently overexpressed in MCL and is highly expressed in the nuclear compartment where it increases levels of histone methylation and silences a subset of tumor suppressor genes. […] The vast majority of SDMA containing proteins were factors that are involved in cellular splicing and RNA processing (SmB, Lsm4, hnRNPH1 and others), transcription (FUBP1) and translation highlighting the role of PRMT5 as an important regulator of cellular RNA homeostasis.

In data set [6] the test system is SKBR3, MDA-MB-468, MCF-7, ZR-75-1 and Z-138 cells. Description: longer-term growth/death assay in breast and MCL cell lines. In kind it is cell-based. The conditions noted are these: SKBR3, MDA-MB-468 and MCF-7 cells, 7-10 days.
Data set [7] concerns MDA-MB-468 xenograft. In words: MDA-MB-468 triple negative breast cancer xenograft model. The data set is classed as in vivo. The conditions noted are these: 100 mg/kg BID. As for the experimental part:
Next, the efficacy of PRMT5 inhibition was evaluated in in vivo models of breast cancer.

The test system of data set [8] is 19 enzymes on the methyltransferase selectivity panel (Type I and Type II PRMTs and lysine methyltransferases). In words: methyltransferase selectivity panel. In kind it is biochemical. The conditions noted are these: PRMT5 tool compounds. The text has this:
FIG. 6: Phylogenetic tree highlighting the methyltransferases tested in the selectivity panel. […] PRMT9 is shown for relationship purposes only within the family tree and was not evaluated in the panel. Figure adapted from Richon V M. et al.
PRMT9/FBXO11, which is the other Type II PRMT and the only PRMT to lack the THW loop, was not included due to the lack of a functional enzyme assay.

Data set [9] has as its system SDMA, MDM4 splicing, p53 in GBM and lymphoma cell lines. Description: SDMA, MDM4 splicing and p53 in GBM and lymphoma cell lines. In kind it is cell-based. The conditions noted are these: 1 μM. The method, then:
Next, effects on cellular methylation and the p53 pathway were evaluated in GBM cells treated with a PRMT5 inhibitor by measuring SDMA, p53 and p21 protein levels and MDM4 splicing (FIG. 27). […] Alternative MDM4 splicing was detected in all cell lines but SF539 which are p53 mutant and have low basal expression of the long MDM4 isoform (FIG. 27, panel A). p53 levels increased in all cell lines, while the induction of p21 protein was observed only in cell lines that have wild-type p53 (Z138 (MCL), U87-MG and A172 (GBM)). […] The role of p53 in the response of GBM cell lines to PRMT5 inhibition will be further tested in future studies. Additionally, the effects of PRMT5 inhibition on cell cycle and neural differentiation in GBM models are being explored.

The subject of data set [10] is cellular splicing in lymphoma cell lines. In words: RNA-sequencing splicing analysis in lymphoma cell lines. The data set is classed as cell-based. The method, then: A. Mechanisms of regulation of cellular splicing (adapted from Bezzi M. et al.). B. Analysis of intron expression in lymphoma lines treated with 0.1 or 0.5 μM Compound B.
A. Quantification of isoform switches in 4 lymphoma cell lines treated with Compound B (0.1 and 0.5 μM) for 2 and 4 days. B. Overlap of isoform switches in 4 lymphoma lines. C. List of genes that undergo alternative splicing in all 4 lymphoma lines (overlap of 4 cell lines).
PRMT5 methylates histones and proteins involved in RNA processing and therefore PRMT5 inhibition is expected to have a profound effect on cellular mRNA homeostasis. To further decipher cellular mechanisms that are regulated by PRMT5 and contribute to the cellular response to PRMT5 inhibitors, global gene expression changes were evaluated in lymphoma models sensitive to PRMT5 inhibition. To elucidate gene expression changes that occur in lymphoma cell lines upon PRMT5 inhibitor treatment, 4 sensitive lymphoma lines (2 MCL lines-Z138 and Granta-519 and 2 DLBCL lines-DOHH2 and RL) were profiled by RNA-sequencing.
Since PRMT5 methylates spliceosome subunits and PRMT5 inhibition attenuates arginine methylation of a number of proteins involved in splicing, the effect of PRMT5 inhibin on cellular splicing was studied. The changes in RNA splicing were assessed in the lymphoma RNA-seq dataset described above. […]

Structures are written as SMILES.

For `CC(=O)N1CCC(Nc2cc(C(=O)NC[C@H](O)CN3CCc4ccccc4C3)ncn2)CC1` [Compound C], the gIC50 result in data set [1] was “single digit”. Besides, the “sensitivity in 6-day growth/death assay” value in data set [2] was “only moderately sensitive”. Also, in data set [3] (200 nM), the “p53 and p21 expression” value is on record as “increased”. The body weight result in data set [4] is on record as “no body weight loss”. For the same compound, the “tumor growth inhibition (TGI)” value in data set [5] is about 100%. In data set [6], the “nature of response upon prolonged exposure” value is “cytotoxic response”. The “Maximal tumor growth inhibition (TGI)” value in data set [7] is 83%.
Take `O=C(NC[C@H](O)CN1CCc2ccccc2C1)c1ccnc(NC2CCC2)c1` [Compound B]: in [8], the “selectivity for PRMT5/MEP50 over the other methyltransferases” value was “Selectivity for PRMT5/MEP50 over the other methyltransferases was also observed”. Besides, the “nature of response upon prolonged exposure” value in [6] is listed as “cytotoxic response”. In addition, in data set [9], the MDM4 splicing entry is recorded as “induces alternative splicing of MDM4”, the SDMA levels result is given as “decreases SDMA levels” and the p53 activation entry is listed as “activates p53”. For the same compound, the isoform switching entry in data set [10] (0.1 and 0.5 μM, 2 and 4 days, 4 lymphoma cell lines) is reported as “induces isoform switching for a subset of genes”. Also, the intron splicing result in data set [10] (0.1 or 0.5 μM, lymphoma cell lines) was “attenuates the splicing of a subset of introns”.
Take `CC(=O)N1CCC(Nc2cc(C(=O)NC[C@H](O)CN3CCc4ccccc4C3)ccn2)CC1` [Compound F]: in data set [8], the “selectivity for PRMT5/MEP50 over the other methyltransferases” value is reported as “Selectivity for PRMT5/MEP50 over the other methyltransferases was also observed”.
Same read-out and setting: with `O=C(NC[C@H](O)CN1CCc2ccccc2C1)c1cc(NC2COC2)ncn1` [Compound E] the entry was “Selectivity for PRMT5/MEP50 over the other methyltransferases was also observed”.
As for `COc1ccc(C2=N[C@@H](c3ccc(Cl)cc3)[C@@H](c3ccc(Cl)cc3)N2C(=O)N2CCNC(=O)C2)c(OC(C)C)c1` [Nutlin-3, reference compound], the “p53 and p21 expression” value in data set [3] (5 μM) is “increased”.
